In ChEMBL document CHEMBL1150673, “Briarellins J-P and polyanthellin A: new eunicellin-based diterpenes from the gorgonian coral Briareum polyanthes and their antimalarial activity” (J Nat Prod, 2003) one finds IC50 and Activity data, which are given here for twelve molecules.

In one experiment the test system is Plasmodium falciparum. As to the kind of experiment: Antimalarial activity as Plasmodium falciparum DNA by PicoGreen microfluorimetry. In kind it is functional, organism-based.
Experiment [1] relates to Mycobacterium tuberculosis. As to the kind of experiment: Antitubercular activity against Mycobacterium tuberculosis H37Rv at 6.25 ug/ml. In kind it is functional, organism-based.
The target of experiment [2] is Cyclin-dependent kinase 1/cyclin B1 (Homo sapiens) (UniProt P06493+P14635). Put plainly: Inhibition of Cdc2/cyclin B. In kind it is protein-complex assay.
Experiment [3] concerns M-phase inducer phosphatase (Cdc25). Put plainly: Inhibition of Cdc25.
For the next experiment, the system named is MCF. As to the kind of experiment: Cytotoxicity against human MCF cells at 100 uM. It counts as functional, cell-based.
The subject of a further experiment is NCI-H460. Put plainly: Cytotoxicity against human NCI-H460 cells at 100 uM. It counts as functional, cell-based.
For the next experiment, the system named is SF-268. Put plainly: Cytotoxicity against human SF268 cells at 100 uM. In kind it is functional, cell-based.

Values after ≈ are worked out from the molar mass of the structure shown. Active and inactive are the calls of the source. The rule behind the calls is not given here.

Chain of Cyclin-dependent kinase 1/cyclin B1 (Homo sapiens) (P06493 whole entry, looked up): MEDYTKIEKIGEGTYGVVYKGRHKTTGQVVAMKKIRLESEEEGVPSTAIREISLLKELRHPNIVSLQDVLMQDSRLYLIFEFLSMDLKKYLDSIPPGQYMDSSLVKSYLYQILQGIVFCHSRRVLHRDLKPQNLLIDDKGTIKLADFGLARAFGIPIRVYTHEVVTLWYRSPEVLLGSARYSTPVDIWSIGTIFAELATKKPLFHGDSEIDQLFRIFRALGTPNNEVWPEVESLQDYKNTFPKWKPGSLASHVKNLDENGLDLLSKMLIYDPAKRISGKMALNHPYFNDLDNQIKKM
Chain of Cyclin-dependent kinase 1/cyclin B1 (Homo sapiens) (P14635 whole entry, looked up): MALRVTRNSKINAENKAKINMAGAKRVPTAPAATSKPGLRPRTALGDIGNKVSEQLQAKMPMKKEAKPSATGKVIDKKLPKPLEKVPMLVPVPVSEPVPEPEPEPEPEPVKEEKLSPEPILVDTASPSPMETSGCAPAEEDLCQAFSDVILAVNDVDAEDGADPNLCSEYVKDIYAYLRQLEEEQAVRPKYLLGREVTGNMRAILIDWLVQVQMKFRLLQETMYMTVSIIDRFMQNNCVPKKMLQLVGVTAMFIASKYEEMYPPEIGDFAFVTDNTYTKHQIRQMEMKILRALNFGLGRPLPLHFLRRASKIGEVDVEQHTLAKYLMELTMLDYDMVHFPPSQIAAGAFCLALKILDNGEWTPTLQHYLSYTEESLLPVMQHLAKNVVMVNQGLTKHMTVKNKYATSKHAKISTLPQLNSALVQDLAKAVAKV

`C=C1CC2OC3[C@H]4C(CC[C@@](C)(OC(=O)CCC)[C@@H]24)[C@@H](C)C(=O)O[C@@]3(C)CC[C@H]1OO` (some centres not stated) [BRIARELLIN D HYDROPEROXIDE] showed an IC50 in the experiment with Plasmodium falciparum of 9 µg/mL (≈ 20.6 µM).

`CC(=O)O[C@]1(C)CCC2[C@@H]3C4OC(C/C(C)=C\CC[C@]4(C)OC(=O)[C@@H]2C)[C@@H]31` (some centres not stated) [BRIARELLIN J] yielded a half-maximal inhibitory concentration (IC50) in the experiment on Plasmodium falciparum above 50 µg/mL.

In the experiment with Plasmodium falciparum, `CCCC(=O)O[C@]1(C)CCC2[C@@H]3C4OC(C[C@@](C)(O)[C@H](O)CC[C@]4(C)OC(=O)[C@@H]2C)[C@@H]31` (some centres not stated) [BRIARELLIN O] had an IC50 of 24 µg/mL (≈ 54.7 µM).

On to `CO[C@@H]1CC[C@]2(C)OC(=O)[C@H](C)C3CC[C@@](C)(OC(C)=O)[C@H]4C(C[C@@]1(C)O)OC2[C@@H]34` (some centres not stated), for which the result in experiment [1], in experiment [2] and in experiment [3] was inactive.

With `CC(=O)O[C@]1(C)CCC2[C@@H]3C4OC(C[C@@](C)(O)[C@H](O)CC[C@]4(C)OC(=O)[C@@H]2C)[C@@H]31` (some centres not stated) [BRIARELLIN M], the IC50 in the experiment on Plasmodium falciparum stood at 22 µg/mL (≈ 53.6 µM).

`CC(=O)O[C@@]1(C)CC[C@@H](C(C)C)[C@@H]2C3OC(C[C@@]4(C)CCC[C@]3(C)O4)[C@@H]21` [POLYANTHELLIN A]: in the experiment on Plasmodium falciparum, half-maximal inhibition (IC50) required 16 µg/mL (≈ 43.9 µM). In addition, the outcome in experiment [1] was inactive.

Turning to `C=C1CC2OC3[C@H]4C(CC[C@@](C)(OC(C)=O)[C@@H]24)[C@@H](C)C(=O)O[C@@]3(C)CC[C@H]1OO` (some centres not stated) [BRIARELLIN K HYDROPEROXIDE], in the experiment on Plasmodium falciparum, the IC50 is 9 µg/mL (≈ 22 µM).

In the experiment with Plasmodium falciparum, `C=C1CC2OC3[C@H]4C(CC[C@@](C)(OC(C)=O)[C@@H]24)[C@@H](C)C(=O)O[C@@]3(C)CC[C@H]1O` (some centres not stated) [BRIARELLIN K] yielded an IC50 of 15 µg/mL (≈ 38.2 µM). Also, the outcome (in the experiment with MCF; in the experiment with NCI-H460; with SF-268; in experiment [1]; in experiment [2]; in experiment [3]) was inactive.

`CC(C)[C@@H]1CC[C@](C)(O)[C@H]2C3C[C@@]4(C)CCC[C@](C)(O4)C(O3)[C@@H]12` showed an IC50 in the experiment with Plasmodium falciparum of 16 µg/mL (≈ 49.6 µM).

In the experiment with Plasmodium falciparum, `C=C1CC2OC3[C@H]4C(CC[C@@](C)(OC(=O)CCC)[C@@H]24)[C@@H](C)C(=O)O[C@@]3(C)CC[C@H]1O` (some centres not stated) [BRIARELLIN D] yielded an IC50 of 13 µg/mL (≈ 30.9 µM). Moreover, the result (in the experiment with MCF; in the experiment on NCI-H460; with SF-268; in experiment [1]; in experiment [2]; in experiment [3]) was inactive.

`CCCC(=O)O[C@]1(C)CCC2[C@@H]3C4OC(C[C@@](C)(O)[C@H](OC)CC[C@]4(C)OC(=O)[C@@H]2C)[C@@H]31` (some centres not stated) [BRIARELLIN P] came in with an IC50 with Plasmodium falciparum of 14 µg/mL (≈ 30.9 µM).

In the experiment with Plasmodium falciparum, `C=C1CC2OC3[C@H]4C(CC[C@@](C)(OC(=O)CCC)[C@@H]24)[C@@H](C)C(=O)O[C@@]3(C)CC[C@H]1OC(C)=O` (some centres not stated) [BRIARELLIN L] came in with a 50% inhibitory concentration (IC50) of 8 µg/mL (≈ 17.3 µM).
